Laboratory results from the NIST ThermoML archive (doi:10.1016/j.jct.2009.07.022).
Where “and” joins values, the source holds several entries; their conditions need not be identical. Equal values may be shown once.

Columns and labels:
[1] = molar enthalpy of transition or fusion; settings: 298.15 K; Crystal; Clausius-Clapeyron Eq with Heat Capacity
[2] = Crystal, Calculated from knudsen effusion weight loss

c1ccc(-c2cccc(-c3ccccc3)c2-c2ccccc2)cc1 [1,2,3-triphenylbenzene]
Settings	molar enthalpy of transition or fusion [kJ/mol]
[1]	134

[2]
Settings	vapor or sublimation pressure
373.15 K	0.0001 kPa and 9.85e-05 kPa
375.03 K	0.000124 kPa and 0.00012 kPa
377.27 K	0.00016 kPa and 0.000158 kPa
379.15 K	0.0002 kPa and 0.000199 kPa and 0.000195 kPa
381.02 K	0.000244 kPa and 0.000247 kPa and 0.000237 kPa
383.27 K	0.000316 kPa and 0.000305 kPa and 0.000301 kPa
385.27 K	0.000384 kPa and 0.000369 kPa and 0.000365 kPa
387.12 K	0.000458 kPa and 0.00046 kPa
389.05 K	0.000548 kPa and 0.000555 kPa and 0.000543 kPa
391.28 K	0.000733 kPa and 0.00073 kPa and 0.000715 kPa
393.1 K	0.000871 kPa and 0.000865 kPa and 0.000872 kPa
394.98 K	0.001033 kPa and 0.001062 kPa and 0.001027 kPa
